Results on eleven molecules are retold here after patent US20210244738A1, “COMPOSITIONS AND METHODS FOR SUPPRESSING NONSENSE MUTATIONS” (The UAB Research Foundation, priority 2018, published 2021).

In data set [1] the test system is Idua mRNA in wildtype MEFs. The data set is described as follows: Steady state Idua mRNA by qPCR in wildtype MEFs. In kind it is cell-based, mouse. Particulars: 48 hours, compared to the vehicle alone control. The protocol:
Total RNA was isolated from MEFs using the Ambion RiboPure kit and DNase-treated using the Turbo DNA-Free kit. Polyadenylated RNA was reverse transcribed into cDNA in a 50 μl reaction containing […] of total RNA; 0.5 mg/ml oligo dT; 1.2 mM dNTPs; 40 U RNasin (Promega); […] of 5×AMV RT buffer and 40 U AMV reverse transcriptase (Promega), RT reactions were incubated at 42° C. for 1.5 hours, and then heat inactivated at 65° C. for 15 minutes. The cDNA was ethanol precipitated and subjected to qPCR in a 25 μl reaction containing 12.5 μl iQ SYBR Green Supermix (Bio-Rad); 0.2 mM of each forward and reverse primer; and […] of cDNA. […]
Melt curve analysis was initially performed with each primer set to verify that only one gene product was generated from the PCR reactions. […] The average quantification cycle (Cq) was determined for each mRNA, and mRNA quantification was performed using the Livak (DDCq) method (Livak K J, et al. (2001) Methods. 25(4):402-8), where Gapdh and Rpl13a served as normalization controls.

Data set [2] deals with W134X NanoLuc RT/NMD reporter. The data set is described as follows: W134X NanoLuc readthrough/NMD reporter screen in Fischer rat thyroid cells. In kind it is cell-based. To be noted: NanoLuc activity; for +G418 Fold-Increase (Rel. to G418): drug conc. 60 μM combined with G418 100 μg/ml. On the procedure:
Equal numbers of the W134X NanoLuc RT/NMD monoclonal reporter cells were seeded into 96-well plates and cultured without zeocin for 24 hours. The cells were then treated with screening compounds for 24-hours. Dimethylsulfoxide served as the vehicle in which compounds were administered at a final concentration of 60 μM or 30 μg/ml. After treatment, the cells were washed once with phosphate-buffered saline, followed by incubation with passive lysis buffer (PLB) (Promega, E1941) for 20 minutes at room temperature. NanLuc activity in cell lysates was assayed with the Nano-Glo Luciferase Assay System (Promega, N1120) using the GloMax® Discover System (Promega). NanoLuc activity was normalized to the lysate protein concentration, which was determined by the Bio-Rad Protein Assay Reagent (Bio-Rad, 500-006).
In order to identify new compounds with the ability to suppress PTCs by inducing readthrough, inhibiting NMD, or both, a NanoLuc reporter that harbors a point mutation at codon W134 was utilized, resulting in the introduction of a UGA termination codon (W134X) into the NanoLuc cDNA. This NanoLuc construct was fused in-frame to a human β-globin construct containing intronic regions, which allows the W134X PTC to elicit exon-junction-complex dependent NMD (FIG. 1A). This NanoLuc readthrough/NMD reporter was stably expressed in Fischer rat thyroid cells, which were used to screen a 10,000 low molecular weight compound library for compounds that increase NanoLuc activity in treated cells relative to a vehicle control.

The test system of data set [3] is Idua-KO MEFs. Kind of data set: GAG levels in Idua-KO MEFs. In kind it is cell-based, mouse. Particulars: 48 hours (FIG. 7B). The protocol: MEFs were grown to 50% confluency and then treated with screening agents for 48 hours.
Data set [4] deals with Idua-KO MEFs. Kind of data set: α-L-iduronidase activity in Idua-KO MEFs. To be noted: 48 hours (FIG. 7A). In kind it is cell-based, mouse. The protocol:
MEFs were seeded into 6-well culture dishes at a density of 1.5×10^5 cells per well. MEFs were grown to 50% confluency and then treated with screening agents for 48 hours. MEFs were subsequently washed with PBS and lysed in Mammalian Protein Extraction Reagent (Pierce) containing a protease inhibitor cocktail (Roche). The total protein concentration was determined using the Bio-Rad Protein Assay, Approximately 75 micrograms of total lysate protein was incubated in a 70-microliter reaction containing 0.12 mM 4-methyl-umbelliferyl-α-L-iduronide (Gold Biotech) and 0.42 mg/ml of D-saccharic acid 1,4-lactone monohydrate (a β-glucuronidase inhibitor) (Sigma 50375) in 130 mM sodium formate buffer, pH 3.5. The reaction was incubated for 72 hours at 37° C. and then quenched with 300 μl of glycine buffer, pH 10.8. 200 μl of each sample was transferred to a 96-well plate (Corning 3631) and fluorescence was measured at an excitation=365 nm and an emission=450 nm using the GloMax® Discover System (Promega). Free acid 4-methylumbelliferone (FMU) (Sigma M1381) in glycine buffer was used to generate a standard curve.

Data set [5] relates to cystic fibrosis patients who carry a PTC. To be noted: Kerem et al. 2014; cited from earlier work.
The conditions of data set [6]: Hirawat et al. 2004, 2007; cited from earlier work.

For `COc1cc2nc(N3CCN(C(=O)C4COc5ccccc5O4)CC3)nc(N)c2cc1OC` (stereo not shown) [Doxazocin], in data set [1], the “change of Idua mRNA levels” value was “slightly increased Idua mRNA levels”. In addition, in data set [2], the “+G418 Fold-Increase (Rel. to G418)” value is listed as 10.3 fold. Besides, the “Drug Alone Fold-Increase (Rel. to Basal)” value in data set [2] (drug conc. 60 μM, 24 h) is given as 4.1 fold.
For `COc1cc2c(cc1OC)CN(CCc1ccc(NC(=O)c3cccc4c(=O)c5cccc(OC)c5[nH]c34)cc1)CC2` [Elacridar], in data set [2], the “+G418 Fold-Increase (Rel. to G418)” value is given as 6.0 fold. For the same molecule, in data set [2] (drug conc. 60 μM, 24 h), the “Drug Alone Fold-Increase (Rel. to Basal)” value is on record as 4.8 fold.
As to `CN[C@@H]1[C@@H](O)[C@@H](O[C@@H]2[C@@H](O)[C@H](O[C@H]3O[C@H]([C@@H](C)O)[C@@H](O)[C@H](O)[C@H]3N)[C@@H](N)C[C@H]2N)OC[C@]1(C)O` [G418 alone], in data set [2] (readthrough control at 100 μg/ml), the “Drug Alone Fold-Increase (Rel. to Basal)” value was 24 fold.
As for `CCCn1c(=O)c2[nH]c(-c3cnn(Cc4cccc(C(F)(F)F)c4)c3)nc2n(CC)c1=O` [GS-6201], the “+G418 Fold-Increase (Rel. to G418)” value in data set [2] was determined as 13.6 fold. The “Drug Alone Fold-Increase (Rel. to Basal)” value in data set [2] (drug conc. 60 μM, 24 h) turned out to be 10.3 fold.
The matching figures for `Cc1ccc(NC(=O)c2ccc(CN3CCN(C)CC3)cc2)cc1Nc1nccc(-c2cccnc2)n1` [Imantinib]: 19.1 fold and 4.6 fold.
As to `C=CCN1CC[C@]23c4c5ccc(O)c4O[C@H]2/C(=N/N=C2\CC[C@@]4(O)[C@H]6Cc7ccc(O)c8c7[C@@]4(CCN6CC=C)[C@H]2O8)CC[C@@]3(O)[C@H]1C5` [Naloxonazine], the “+G418 Fold-Increase (Rel. to G418)” value in data set [2] is listed as 5.8 fold. The “Drug Alone Fold-Increase (Rel. to Basal)” value in data set [2] (drug conc. 60 μM, 24 h) is reported as 2.7 fold.
The matching figures for `CN1CC(=O)N2[C@H](c3ccc4c(c3)OCO4)c3[nH]c4ccccc4c3C[C@@H]2C1=O` [Tadalafil]: 6.3 fold and 2.3 fold.
On the same counts, the results for `COc1cc2c(N3CCN(C(=O)Nc4ccc(OC(C)C)cc4)CC3)ncnc2cc1OCCCN1CCCCC1` [Tandutinib] are 7.8 fold and 3.8 fold.
On to `Nc1nc(N)c2nc(-c3ccccc3)c(N)nc2n1` [Triamterene, 2,4,7-triamino-6-phenylpteridine], for which the “reduction in GAGs” value in data set [3] is “little to no reduction in GAGs”. Further, the “change of Idua mRNA levels” value in data set [1] was “did not significantly change Idua mRNA levels”. Moreover, the α-L-iduronidase activity entry in data set [4] is given as “slight increases in α-L-iduronidase”. For the same molecule, the “+G418 Fold-Increase (Rel. to G418)” value in data set [2] is 15.7 fold. In addition, in data set [2] (drug conc. 60 μM, 24 h), the “Drug Alone Fold-Increase (Rel. to Basal)” value is 13.4 fold.
Regarding `O=C(O)c1cccc(-c2noc(-c3ccccc3F)n2)c1` [ataluren], the lung function result in data set [5] is given as “did not significantly improve lung function”. Moreover, in data set [6], the “toxicity / safety for clinical use” value is “non-toxic and safe for clinical use”.
For the molecule Verteporfin, the “+G418 Fold-Increase (Rel. to G418)” value in data set [2] is 7.1 fold. Also, the “Drug Alone Fold-Increase (Rel. to Basal)” value in data set [2] (drug conc. 60 μM, 24 h) was found to be 4.3 fold.
